ChEMBL document CHEMBL2021760, “4-(1-Phenyl-1H-pyrazol-4-yl)quinolines as novel, selective and brain penetrant metabotropic glutamate receptor 4 positive allosteric modulators” (Bioorg Med Chem Lett, 2012)
≈ marks a conversion by molar mass, not a printed value. Calls of active or inactive are those of the source. No cut-off for these calls is given here.

Tests used:
[1] = molecular target: T1, Metabotropic glutamate receptor 4 (Homo sapiens, UniProt Q14833); experiment: Positive allosteric modulation of human mGlu4 receptor expressed in BHK cells assessed as potentiation of glutamate-induced calcium mobilization by FLIPR analysis; type: functional, cell-based
[2] = molecular target: T1, Metabotropic glutamate receptor 4; experiment: Positive allosteric modulation of human mGlu4 receptor expressed in BHK cells assessed as potentiation of glutamate-induced calcium mobilization by FLIPR analysis relative to PHCCC; type: functional, cell-based
[3] = molecular target: T1, Metabotropic glutamate receptor 4; experiment: Positive allosteric modulation of human mGlu4 receptor expressed in BHK cells assessed as fold shift in calcium mobilization by FLIPR analysis relative to glutamate; type: functional, cell-based
[4] = molecular target: Metabotropic glutamate receptor 1 (Homo sapiens) (UniProt Q13255); experiment: Agonist activity at mGlu1 receptor at 10 uM; type: functional
[5] = molecular target: Metabotropic glutamate receptor 2 (Homo sapiens) (UniProt Q14416); experiment: Agonist activity at mGlu2 receptor at 10 uM; type: functional
[6] = molecular target: Metabotropic glutamate receptor 3 (Homo sapiens) (UniProt Q14832); experiment: Agonist activity at mGlu3 receptor at 10 uM; type: functional
[7] = molecular target: Metabotropic glutamate receptor 5 (Homo sapiens) (UniProt P41594); experiment: Agonist activity at mGlu5 receptor at 10 uM; type: functional
[8] = molecular target: Metabotropic glutamate receptor 6 (Homo sapiens) (UniProt O15303); experiment: Agonist activity at mGlu6 receptor at 10 uM; type: functional
[9] = molecular target: Metabotropic glutamate receptor 7 (Homo sapiens) (UniProt Q14831); experiment: Agonist activity at mGlu7 receptor at 10 uM; type: functional
[10] = molecular target: Metabotropic glutamate receptor 8 (Homo sapiens) (UniProt O00222); experiment: Agonist activity at mGlu8 receptor at 10 uM; type: functional
[11] = molecular target: Metabotropic glutamate receptor 1 (Homo sapiens) (UniProt Q13255); experiment: Positive allosteric modulation of mGlu1 receptor at 10 uM
[12] = molecular target: Metabotropic glutamate receptor 2 (Homo sapiens) (UniProt Q14416); experiment: Positive allosteric modulation of mGlu2 receptor at 10 uM
[13] = molecular target: Metabotropic glutamate receptor 3 (Homo sapiens) (UniProt Q14832); experiment: Positive allosteric modulation of mGlu3 receptor at 10 uM
[14] = molecular target: Metabotropic glutamate receptor 5 (Homo sapiens) (UniProt P41594); experiment: Positive allosteric modulation of mGlu5 receptor at 10 uM
[15] = molecular target: Metabotropic glutamate receptor 6 (Homo sapiens) (UniProt O15303); experiment: Positive allosteric modulation of mGlu6 receptor at 10 uM
[16] = molecular target: Metabotropic glutamate receptor 7 (Homo sapiens) (UniProt Q14831); experiment: Positive allosteric modulation of mGlu7 receptor at 10 uM
[17] = molecular target: Metabotropic glutamate receptor 8 (Homo sapiens) (UniProt O00222); experiment: Positive allosteric modulation of mGlu8 receptor at 10 uM
[18] = molecular target: Metabotropic glutamate receptor 1 (Homo sapiens) (UniProt Q13255); experiment: Negative allosteric modulation of mGlu1 receptor at 10 uM
[19] = molecular target: Metabotropic glutamate receptor 2 (Homo sapiens) (UniProt Q14416); experiment: Negative allosteric modulation of mGlu2 receptor at 10 uM
[20] = molecular target: Metabotropic glutamate receptor 3 (Homo sapiens) (UniProt Q14832); experiment: Negative allosteric modulation of mGlu3 receptor at 10 uM
[21] = molecular target: Metabotropic glutamate receptor 5 (Homo sapiens) (UniProt P41594); experiment: Negative allosteric modulation of mGlu5 receptor at 10 uM
[22] = molecular target: Metabotropic glutamate receptor 6 (Homo sapiens) (UniProt O15303); experiment: Negative allosteric modulation of mGlu6 receptor at 10 uM
[23] = molecular target: Metabotropic glutamate receptor 7 (Homo sapiens) (UniProt Q14831); experiment: Negative allosteric modulation of mGlu7 receptor at 10 uM
[24] = molecular target: Metabotropic glutamate receptor 8 (Homo sapiens) (UniProt O00222); experiment: Negative allosteric modulation of mGlu8 receptor at 10 uM
[25] = Lipophilicity, log D of compound at pH 7.4; type: physicochemical; settings: buffer
CYP3A4 = CYP3A4 (Homo sapiens, UniProt P08684); experiment: Inhibition of CYP3A4 at 5 uM; type: ADME
CYP2C9 = CYP2C9 (Homo sapiens, UniProt P11712); experiment: Inhibition of CYP2C9 at 5 uM; type: ADME
CYP2B6 = molecular target: T2, CYP2B6 (Homo sapiens, UniProt P20813); experiment: Inhibition of CYP2B6 at 5 uM; type: ADME
T2 sequence (P20813 whole entry): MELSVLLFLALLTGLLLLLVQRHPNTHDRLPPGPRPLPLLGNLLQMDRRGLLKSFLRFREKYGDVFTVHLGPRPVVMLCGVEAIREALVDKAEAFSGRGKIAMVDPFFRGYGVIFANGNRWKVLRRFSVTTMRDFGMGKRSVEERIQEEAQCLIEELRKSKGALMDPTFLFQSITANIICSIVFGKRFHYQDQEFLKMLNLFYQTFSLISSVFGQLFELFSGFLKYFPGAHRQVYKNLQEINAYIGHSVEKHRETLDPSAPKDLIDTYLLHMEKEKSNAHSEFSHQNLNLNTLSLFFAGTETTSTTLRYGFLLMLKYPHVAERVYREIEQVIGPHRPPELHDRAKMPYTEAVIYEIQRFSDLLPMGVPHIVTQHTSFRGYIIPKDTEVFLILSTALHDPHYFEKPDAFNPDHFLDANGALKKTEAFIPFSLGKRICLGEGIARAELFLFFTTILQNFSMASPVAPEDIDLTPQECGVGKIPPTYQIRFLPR

[26] = Kinetic solubility of the compound at pH 7.4; type: physicochemical; settings: buffer, read-out: Kinetic_solubility
[27] = Kinetic solubility of the compound at pH 4.0; type: physicochemical; settings: buffer, read-out: Kinetic_solubility
[28] = Plasma protein binding in rat; type: ADME, cell-free; settings: read-out: PPB (converted)
Brain [29] = experiment: Fraction unbound in rat brain; type: ADME, tissue-based
[30] = molecular target: Voltage-gated inwardly rectifying potassium channel KCNH2 (Homo sapiens, UniProt Q12809); experiment: Inhibition of human ERG by electrophysiology assay
[31] = molecular target: T3, Melatonin receptor type 1A (Homo sapiens, UniProt P48039); experiment: Agonist activity at MT1; type: functional
[32] = molecular target: T3, Melatonin receptor type 1A; experiment: Agonist activity at MT1 relative to control; type: functional
[33] = molecular target: 5-hydroxytryptamine receptor 2B (Homo sapiens, UniProt P41595); experiment: Inhibition of 5HT2B
Rattus norvegicus = species: Rattus norvegicus; experiment: Intrinsic clearance in rat; type: ADME, organism-based; settings: in vivo
Brain [34] = experiment: Drug uptake in rat brain at 30 mg/kg, sc; type: ADME, organism-based; set-up: dose 30 mg/kg, route subcutaneous; settings: in vivo
Plasma = experiment: Plasma concentration in rat at 30 mg/kg, sc; type: ADME, organism-based; set-up: dose 30 mg/kg, route subcutaneous; settings: in vivo
Cerebrospinal fluid = experiment: Drug uptake in rat CSF at 30 mg/kg, sc; type: ADME, organism-based; set-up: dose 30 mg/kg, route subcutaneous; settings: in vivo
[35] = Ratio of drug level in brain to plasma in rat at 30 mg/kg, sc; type: ADME, organism-based; set-up: dose 30 mg/kg, route subcutaneous; settings: read-out: BPR
[36] = Inhibition of benzodiazepine receptor

Chain of Metabotropic glutamate receptor 1 (Homo sapiens) (Q13255 19-1194 limits assumed): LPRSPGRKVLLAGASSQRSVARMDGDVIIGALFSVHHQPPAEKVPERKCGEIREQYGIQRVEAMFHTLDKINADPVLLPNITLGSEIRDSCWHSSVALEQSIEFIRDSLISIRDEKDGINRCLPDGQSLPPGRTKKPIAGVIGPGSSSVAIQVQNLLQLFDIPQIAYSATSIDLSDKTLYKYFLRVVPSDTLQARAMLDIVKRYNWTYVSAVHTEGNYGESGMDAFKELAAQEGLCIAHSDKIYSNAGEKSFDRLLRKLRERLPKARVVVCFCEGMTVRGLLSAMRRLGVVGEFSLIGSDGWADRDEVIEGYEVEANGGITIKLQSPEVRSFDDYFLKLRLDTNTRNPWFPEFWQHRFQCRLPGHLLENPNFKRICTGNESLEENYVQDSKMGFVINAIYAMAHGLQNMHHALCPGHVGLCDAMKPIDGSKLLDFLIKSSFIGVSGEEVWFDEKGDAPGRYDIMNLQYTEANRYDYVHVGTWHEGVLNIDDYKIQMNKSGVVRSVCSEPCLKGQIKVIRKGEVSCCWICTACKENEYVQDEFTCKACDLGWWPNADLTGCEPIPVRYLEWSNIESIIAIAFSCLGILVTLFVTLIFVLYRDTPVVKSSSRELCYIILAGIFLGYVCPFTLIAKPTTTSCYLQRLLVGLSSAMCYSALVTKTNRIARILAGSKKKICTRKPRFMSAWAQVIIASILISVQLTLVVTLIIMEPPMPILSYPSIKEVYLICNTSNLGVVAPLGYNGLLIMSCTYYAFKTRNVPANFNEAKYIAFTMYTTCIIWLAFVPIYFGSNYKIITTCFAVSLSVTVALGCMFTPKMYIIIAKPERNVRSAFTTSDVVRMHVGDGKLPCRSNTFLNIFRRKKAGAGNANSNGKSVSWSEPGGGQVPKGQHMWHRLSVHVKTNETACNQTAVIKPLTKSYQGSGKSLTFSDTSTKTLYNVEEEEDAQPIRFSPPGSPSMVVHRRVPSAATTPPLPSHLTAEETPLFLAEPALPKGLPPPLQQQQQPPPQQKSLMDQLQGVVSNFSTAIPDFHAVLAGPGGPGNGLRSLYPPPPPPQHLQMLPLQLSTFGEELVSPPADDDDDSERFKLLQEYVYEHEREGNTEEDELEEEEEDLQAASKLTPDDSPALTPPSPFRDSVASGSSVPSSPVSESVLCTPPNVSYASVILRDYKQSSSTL
T1 sequence (Q14833 whole entry): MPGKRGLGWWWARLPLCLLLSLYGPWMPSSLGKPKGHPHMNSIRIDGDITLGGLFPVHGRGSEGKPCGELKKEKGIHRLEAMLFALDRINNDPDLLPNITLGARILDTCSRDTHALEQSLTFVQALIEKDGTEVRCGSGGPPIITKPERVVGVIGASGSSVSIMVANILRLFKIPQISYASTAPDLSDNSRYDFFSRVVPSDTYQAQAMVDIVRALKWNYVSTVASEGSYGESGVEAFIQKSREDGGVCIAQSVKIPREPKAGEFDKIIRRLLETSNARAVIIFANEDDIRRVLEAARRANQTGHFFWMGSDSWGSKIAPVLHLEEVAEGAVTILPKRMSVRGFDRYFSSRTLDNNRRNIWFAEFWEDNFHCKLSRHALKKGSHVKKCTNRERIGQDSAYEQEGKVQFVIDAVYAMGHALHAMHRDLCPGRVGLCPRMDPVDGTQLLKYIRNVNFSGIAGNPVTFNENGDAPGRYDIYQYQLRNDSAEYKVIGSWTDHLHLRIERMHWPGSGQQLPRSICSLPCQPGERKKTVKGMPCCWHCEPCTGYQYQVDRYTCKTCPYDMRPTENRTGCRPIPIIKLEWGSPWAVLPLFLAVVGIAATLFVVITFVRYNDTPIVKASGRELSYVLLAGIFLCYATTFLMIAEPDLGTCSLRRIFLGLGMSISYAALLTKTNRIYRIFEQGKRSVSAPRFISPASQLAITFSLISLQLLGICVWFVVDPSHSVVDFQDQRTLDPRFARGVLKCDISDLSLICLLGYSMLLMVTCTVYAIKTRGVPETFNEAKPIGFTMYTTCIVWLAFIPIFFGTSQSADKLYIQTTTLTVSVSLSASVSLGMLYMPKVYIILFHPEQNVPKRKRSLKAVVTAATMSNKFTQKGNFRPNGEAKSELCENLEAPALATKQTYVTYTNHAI
Chain of Metabotropic glutamate receptor 6 (Homo sapiens) (O15303 whole entry): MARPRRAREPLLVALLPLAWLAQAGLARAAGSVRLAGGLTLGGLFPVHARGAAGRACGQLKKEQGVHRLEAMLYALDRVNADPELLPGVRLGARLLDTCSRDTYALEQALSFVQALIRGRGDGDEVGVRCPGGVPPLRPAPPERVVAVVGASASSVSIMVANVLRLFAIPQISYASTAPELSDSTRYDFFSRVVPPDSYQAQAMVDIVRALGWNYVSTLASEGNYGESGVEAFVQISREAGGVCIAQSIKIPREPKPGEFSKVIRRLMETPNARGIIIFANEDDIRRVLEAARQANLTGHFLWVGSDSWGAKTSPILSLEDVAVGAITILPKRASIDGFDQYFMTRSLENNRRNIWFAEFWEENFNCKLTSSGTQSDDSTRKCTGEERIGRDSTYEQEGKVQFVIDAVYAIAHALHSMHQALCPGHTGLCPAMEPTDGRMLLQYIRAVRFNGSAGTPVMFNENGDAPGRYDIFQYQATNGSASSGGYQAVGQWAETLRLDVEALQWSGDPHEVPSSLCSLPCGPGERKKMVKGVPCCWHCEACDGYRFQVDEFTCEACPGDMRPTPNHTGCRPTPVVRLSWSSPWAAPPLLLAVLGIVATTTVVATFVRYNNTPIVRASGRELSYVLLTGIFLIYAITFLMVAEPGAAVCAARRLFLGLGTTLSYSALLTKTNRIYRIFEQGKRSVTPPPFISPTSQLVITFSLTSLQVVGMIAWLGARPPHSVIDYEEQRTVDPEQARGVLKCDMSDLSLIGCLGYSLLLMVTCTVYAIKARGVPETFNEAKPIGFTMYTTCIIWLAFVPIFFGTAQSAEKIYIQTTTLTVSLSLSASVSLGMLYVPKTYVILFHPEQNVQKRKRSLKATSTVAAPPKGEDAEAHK
Chain of Metabotropic glutamate receptor 3 (Homo sapiens) (Q14832 23-879 limits assumed): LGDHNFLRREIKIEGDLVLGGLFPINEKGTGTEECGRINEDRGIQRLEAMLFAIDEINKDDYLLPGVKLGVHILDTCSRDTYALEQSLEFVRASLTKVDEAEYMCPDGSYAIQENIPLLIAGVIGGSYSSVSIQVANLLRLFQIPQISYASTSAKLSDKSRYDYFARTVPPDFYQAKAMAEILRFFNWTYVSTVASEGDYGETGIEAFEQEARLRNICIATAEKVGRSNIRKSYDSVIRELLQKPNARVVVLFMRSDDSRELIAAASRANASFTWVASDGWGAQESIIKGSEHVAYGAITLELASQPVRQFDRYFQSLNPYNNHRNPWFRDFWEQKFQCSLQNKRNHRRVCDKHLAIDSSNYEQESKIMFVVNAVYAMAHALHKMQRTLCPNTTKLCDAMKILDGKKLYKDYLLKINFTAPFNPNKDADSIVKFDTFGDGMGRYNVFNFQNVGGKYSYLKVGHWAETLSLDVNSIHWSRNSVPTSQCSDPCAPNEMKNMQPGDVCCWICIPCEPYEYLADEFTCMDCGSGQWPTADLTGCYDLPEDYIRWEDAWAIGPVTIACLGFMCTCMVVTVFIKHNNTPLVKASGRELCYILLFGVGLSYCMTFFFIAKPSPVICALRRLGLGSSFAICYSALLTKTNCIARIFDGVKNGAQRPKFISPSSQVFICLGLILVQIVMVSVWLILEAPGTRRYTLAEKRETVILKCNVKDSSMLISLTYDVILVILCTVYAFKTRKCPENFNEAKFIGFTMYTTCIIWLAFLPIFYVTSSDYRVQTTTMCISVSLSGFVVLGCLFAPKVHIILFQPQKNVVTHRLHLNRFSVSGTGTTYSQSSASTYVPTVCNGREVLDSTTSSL
Chain of Metabotropic glutamate receptor 5 (Homo sapiens) (P41594 21-1212 limits assumed): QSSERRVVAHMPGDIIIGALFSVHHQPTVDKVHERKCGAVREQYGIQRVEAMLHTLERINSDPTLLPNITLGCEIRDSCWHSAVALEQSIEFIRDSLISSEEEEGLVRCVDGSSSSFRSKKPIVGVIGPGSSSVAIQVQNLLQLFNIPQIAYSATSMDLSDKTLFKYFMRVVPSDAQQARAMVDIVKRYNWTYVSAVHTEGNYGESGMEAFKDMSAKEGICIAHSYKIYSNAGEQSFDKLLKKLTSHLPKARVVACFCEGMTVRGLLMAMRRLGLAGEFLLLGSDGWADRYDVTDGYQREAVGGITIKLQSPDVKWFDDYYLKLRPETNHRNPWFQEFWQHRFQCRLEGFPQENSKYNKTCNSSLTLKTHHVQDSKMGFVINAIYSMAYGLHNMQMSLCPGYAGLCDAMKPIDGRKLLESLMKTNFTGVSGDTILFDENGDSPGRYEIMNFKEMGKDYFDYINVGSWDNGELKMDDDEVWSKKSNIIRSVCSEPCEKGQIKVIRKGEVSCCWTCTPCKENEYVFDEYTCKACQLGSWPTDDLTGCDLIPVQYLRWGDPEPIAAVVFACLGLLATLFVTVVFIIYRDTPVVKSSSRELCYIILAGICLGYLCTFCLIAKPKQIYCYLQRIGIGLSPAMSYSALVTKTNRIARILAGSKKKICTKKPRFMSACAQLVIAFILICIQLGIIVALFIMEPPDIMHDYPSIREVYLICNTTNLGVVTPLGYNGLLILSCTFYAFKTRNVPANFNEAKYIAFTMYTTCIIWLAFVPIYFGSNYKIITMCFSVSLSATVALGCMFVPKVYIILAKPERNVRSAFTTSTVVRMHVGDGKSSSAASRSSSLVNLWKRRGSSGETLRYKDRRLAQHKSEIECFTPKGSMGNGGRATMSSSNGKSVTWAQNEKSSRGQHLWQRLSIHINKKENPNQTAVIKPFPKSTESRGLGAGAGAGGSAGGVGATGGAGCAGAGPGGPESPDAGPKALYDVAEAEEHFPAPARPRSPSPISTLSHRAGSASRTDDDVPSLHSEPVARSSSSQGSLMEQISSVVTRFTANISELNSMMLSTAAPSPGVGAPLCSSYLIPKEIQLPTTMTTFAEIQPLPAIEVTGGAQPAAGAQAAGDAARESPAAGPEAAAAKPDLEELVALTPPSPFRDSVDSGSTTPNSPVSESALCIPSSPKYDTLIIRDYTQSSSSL

CCOc1ccc2c(-c3cnn(-c4ccccc4)c3)ccnc2c1
EC50 [1]: 540 nM
Emax [2]: 93%

Cc1cnccc1-c1cnn(-c2ccccc2)c1
EC50 [1]: 5100 nM
Emax [2]: 90%

Fc1ccc(-n2cc(-c3ccnc4ccccc34)cn2)cc1
EC50 [1]: 2900 nM
Emax [2]: 110%

c1ccc(-n2cc(-c3ccnc4ccccc34)cn2)cc1
EC50 [1]: 220 nM
Emax [2]: 105%
Ratio [3]: 12
Activity [4]: inactive
Activity [5]: inactive
Activity [6]: inactive
Activity [7]: inactive
Activity [8]: inactive
Activity [9]: inactive
Activity [10]: inactive
Activity [11]: inactive
Activity [12]: inactive
Activity [13]: inactive
Activity [14]: inactive
Activity [15]: inactive
Activity [16]: inactive
Activity [17]: inactive
Activity [18]: inactive
Activity [19]: inactive
Activity [20]: inactive
Activity [21]: inactive
Activity [22]: inactive
Activity [23]: inactive
Activity [24]: inactive
logD [25]: 3.9
inhibition at 5 µM (CYP3A4): 38%
inhibition at 5 µM (CYP2C9): 48%
inhibition at 5 µM (CYP2B6): 56%
solubility kinetic [26]: 21 µM (≈ 5.7 µg/mL)
solubility kinetic [27]: 150 µM (≈ 40.7 µg/mL)
fraction unbound [28]: 0.004
Fu (Brain [29]): 0.7%
IC50 [30]: 2500 nM
EC50 [31]: 920 nM
Emax [32]: 84%
IC50 [33]: 1600 nM
CL (Rattus norvegicus): 550 mL/min
Drug uptake (Brain [34]): 5055 ng/g
Cp (Plasma): 1886 ng/mL
Drug uptake (Cerebrospinal fluid): 72 ng/mL
Kp [35]: 2.7
IC50 [36]: 3100 nM

c1ccc(-n2cc(-c3ccncc3)cn2)cc1
EC50 [1]: > 10000 nM
Emax [2]: 39%

c1ccc(-n2cc(-c3ccnc4cc(OCCN5CCOCC5)ccc34)cn2)cc1
EC50 [1]: 1800 nM
Emax [2]: 39%

Cc1nccc(-c2cnn(-c3ccccc3)c2)c1C
EC50 [1]: 1200 nM
Emax [2]: 40%

c1ccc(-n2cc(-c3n[nH]c4ccccc34)cn2)cc1
EC50 [1]: 2400 nM
Emax [2]: 42%

Clc1ccc2c(-c3cnn(-c4ccccc4)c3)ccnc2c1
EC50 [1]: 590 nM
Emax [2]: 100%

O=C(Oc1ccc2c(-c3cnn(-c4ccccc4)c3)ccnc2c1)N1CCCCC1
EC50 [1]: 190 nM
Emax [2]: 130%

Cc1c(-c2ccnc3ccccc23)cnn1-c1ccccc1
EC50 [1]: 670 nM
Emax [2]: 130%

Fc1ccccc1-n1cc(-c2ccnc3ccccc23)cn1
EC50 [1]: 1100 nM
Emax [2]: 70%

CC(=O)N1CCN(CCOc2ccc3c(-c4cnn(-c5ccccc5)c4)ccnc3c2)CC1
EC50 [1]: 690 nM
Emax [2]: 75%

Fc1cccc(-n2cc(-c3ccnc4ccccc34)cn2)c1
EC50 [1]: 3100 nM
Emax [2]: 92%

c1ccc2c(-c3cn[nH]c3)ccnc2c1
EC50 [1]: > 10000 nM
Emax [2]: 6%

O=C(Oc1ccc2c(-c3cnn(-c4ccccc4)c3)ccnc2c1)N1CCOCC1
EC50 [1]: 900 nM
Emax [2]: 84%

OCCCOc1ccc2c(-c3cnn(-c4ccccc4)c3)ccnc2c1
EC50 [1]: > 10000 nM
Emax [2]: 23%

c1ccc(-n2cc(-c3ccnc4cc(OCCN5CCCC5)ccc34)cn2)cc1
EC50 [1]: > 10000 nM
Emax [2]: 9%

c1ccc(-n2cc(-c3ccnc4c3CCC4)cn2)cc1
EC50 [1]: 2300 nM
Emax [2]: 65%

c1ccc(-n2cc(-c3ccnc4cc(OCCCN5CCCCC5)ccc34)cn2)cc1
EC50 [1]: > 10000 nM
Emax [2]: 23%

CCNC(=O)Oc1ccc2c(-c3cnn(-c4ccccc4)c3)ccnc2c1
EC50 [1]: 10000 nM
Emax [2]: 86%

c1ccc(-n2cc(-c3ccnc4[nH]ccc34)cn2)cc1
EC50 [1]: 2700 nM
Emax [2]: 47%
